From ChEMBL document CHEMBL4334535, “Novel Pyrazolyl-dihydroisoquinolines as Positive Allosteric Modulator of the Dopamine D1 Receptor” (ACS Med Chem Lett, 2020) come the findings set out here.

Active and inactive are the calls of the source. The calls are words filed in the database; no cut-off is given here.

The first assay has as its system Mus musculus. The assay is described as follows: Increase in basal locomotor activity in transgenic knockout C57BL/6 mouse expressing human D1 receptor mouse at 10 ml/kg, po measured every 10 mins for 60 mins by automated system analysis. It is filed as functional, organism-based.
With `C[C@H]1c2cccc(-c3cn[nH]c3)c2C[C@H](CO)N1C(=O)Cc1c(Cl)cccc1Cl`, the result was Active.

`C[C@H]1c2cccc(-c3cnn(C)c3)c2C[C@H](CO)N1C(=O)Cc1c(Cl)cccc1Cl`: the outcome was Active.

The target of another assay is T1, D(1A) dopamine receptor (Homo sapiens, UniProt P21728). In words: Potentiation of dopamine-induced positive allosteric modulation of human D1 receptor expressed in HEK293 cells assessed as cAMP production measured after 60 to 90 mins by HTRF assay relative to control. Also on record: concentration or dose not given beside the values. It is filed as functional, cell-based.
T1 sequence (P21728 whole entry): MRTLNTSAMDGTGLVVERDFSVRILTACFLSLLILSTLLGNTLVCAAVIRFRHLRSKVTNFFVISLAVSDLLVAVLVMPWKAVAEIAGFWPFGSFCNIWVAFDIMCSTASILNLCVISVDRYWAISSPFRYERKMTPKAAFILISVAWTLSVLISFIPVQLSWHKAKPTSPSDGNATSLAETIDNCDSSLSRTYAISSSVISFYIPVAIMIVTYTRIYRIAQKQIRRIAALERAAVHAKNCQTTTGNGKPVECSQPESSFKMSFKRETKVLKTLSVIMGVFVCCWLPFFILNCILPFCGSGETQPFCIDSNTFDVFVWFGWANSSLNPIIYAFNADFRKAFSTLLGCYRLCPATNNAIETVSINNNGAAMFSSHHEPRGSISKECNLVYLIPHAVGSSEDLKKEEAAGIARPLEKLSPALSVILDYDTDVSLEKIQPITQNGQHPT
Take `C[C@H]1c2cccc(-c3cn[nH]c3)c2C[C@H](CO)N1C(=O)Cc1c(F)cccc1F`: the Activity was 78.1%.

Consider `C[C@H]1c2cccc(-c3cn[nH]c3)c2C[C@H](CO)N1C(=O)Cc1c(F)cccc1Cl`, for which the Activity came to 81.5%.

With `C[C@H]1c2cccc(-c3cnn(C4CC4)c3)c2C[C@H](CO)N1C(=O)Cc1c(Cl)cccc1Cl`, the Activity was 88.1%.

Consider `C[C@H]1c2cccc(-c3cn[nH]c3)c2C[C@H](CO)N1C(=O)Cc1cc(F)ccc1Cl`, for which the Activity was found to be 79.8%.

With `CCn1cc(-c2cccc3c2C[C@H](CO)N(C(=O)Cc2c(Cl)cccc2Cl)[C@H]3C)cn1`, the Activity turned out to be 91.2%.

Take `C[C@H]1c2cccc(-c3cnn(C)c3)c2C[C@H](CO)N1C(=O)Cc1ccccc1Cl`: the Activity stood at 80.4%.

`C[C@H]1c2cccc(-c3cn[nH]c3)c2C[C@H](CO)N1C(=O)Cc1c(Cl)cccc1Cl`: the Activity is 75.9%.

Regarding `C[C@H]1c2cccc(-c3cnn(C)c3)c2C[C@H](CO)N1C(=O)Cc1c(Cl)cccc1Cl`, the Activity was determined as 91.4%.

`C[C@H]1c2cccc(-c3cnn(CCO)c3)c2C[C@H](CO)N1C(=O)Cc1c(Cl)cccc1Cl`: the Activity turned out to be 79.1%.

As to `C[C@H]1c2cccc(-c3cn[nH]c3)c2C[C@H](CO)N1C(=O)Cc1ccc(F)cc1Cl`, the Activity came to 77.1%.

The next assay has as its target T1, D(1A) dopamine receptor. The assay is described as follows: Positive allosteric modulation of human D1 receptor expressed in HEK293 assessed as cAMP production incubated for 60 mins by HTRF assay. It is filed as functional, cell-based. A general note: Cyclic AMP is a second messenger, typically raised through Gs and lowered through Gi signalling.
As usually defined, the EC50 is the concentration at which the effect is half-maximal. For the compound `C[C@H]1c2cccc(-c3cnn(CCO)c3)c2C[C@H](CO)N1C(=O)Cc1c(Cl)cccc1Cl`, the EC50 was found to be 18.3 nM.
